The experiment addresses T1, MAP2K2 (MEK2) (Homo sapiens, UniProt P36507).
T1 construct: purchased Thermo Fisher Scientific (Life Technologies) SelectScreen
In words: SelectScreen Z'LYTE. In kind it is biochemical. The settings on record: ATP 100 µM. In outline:
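SelectScreen broad panel; activity (Z'LYTE, Adapta) plus binding formats. ATP: Km app for CSF1R Z'LYTE; 10 for CAMK1 Adapta. Readout = % per kinase.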

Consider one molecule from PMC6934184, “Selective DNA-PKcs inhibition extends the therapeutic index of localized radiotherapy and chemotherapy” (The Journal of Clinical Investigation, 2019).

T1 sequence (P36507 whole entry): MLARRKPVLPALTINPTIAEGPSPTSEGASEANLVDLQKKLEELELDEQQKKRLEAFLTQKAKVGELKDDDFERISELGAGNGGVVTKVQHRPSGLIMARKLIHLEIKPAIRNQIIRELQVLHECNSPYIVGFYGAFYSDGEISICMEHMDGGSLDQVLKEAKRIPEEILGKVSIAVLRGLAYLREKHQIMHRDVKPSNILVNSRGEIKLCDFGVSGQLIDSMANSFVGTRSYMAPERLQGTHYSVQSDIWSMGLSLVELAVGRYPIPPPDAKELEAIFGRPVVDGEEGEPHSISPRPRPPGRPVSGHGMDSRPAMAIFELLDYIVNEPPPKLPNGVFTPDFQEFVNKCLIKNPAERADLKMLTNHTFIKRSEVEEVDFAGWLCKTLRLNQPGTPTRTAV

Regarding `CN(C(=O)CN1CCOCC1)c1ccc2sc3c(-c4cccc5c(=O)cc(N6CC7CCC(C6)O7)oc45)cccc3c2c1` [NU5455], the inhibition (as a rule, the change of the read-out against control, counted positive when it falls) at 1 µM amounted to 3.9%.
